Source: patent US20230241226A1, “COMPOUNDS FOR TARGETED DEGRADATION OF CARRIER PROTEINS AND USES THEREOF” (CeMM - Forschungszentrum für Molekulare Medizin GmbH, priority 2019, published 2023)
Residues, ends and D or L forms follow the SMILES beside them. *: point of attachment. Cbz = O=C(OCc1ccccc1)*

Experiments:
dTAG-HA SLCs = assay: dTAG-driven SLC degradation, statements across SLCs (temporal control, chemical rescue); assay type: cell-based, human; settings: HAP1; 0.5 µM dTAG7 12 or 18 hours; MLN4924 1 µM, pomalidomide 10 µM, bortezomib 1 µM, MG-132 1 µM, bafilomycin A1 2.5 µM
Experimental: (D)Chemical “rescue” of dTAG-driven degradation of SLCs. HAP1 cell lines expressing dTAG-HA SLC1A5 or dTAG-HA SLC38A9 were treated with 0.5 µM dTAG7 for 12 or 18 hours, respectively. These cells were also treated with chloroquine (CQ, 50 µM), bortezomib (bort., 1 µM), MG-132 (MG, 1 µM), MLN4924 (MLN, 1 µM), pomalidomide (poma., 10 µM), or bafilomycin A1 (bafi., 2.5 µM). SLC degradation was rescued by inhibiting CRL activity or the proteasome, but not by inhibiting the lysosome machinery.
Western blotting with antibodies against the HA-tag and the total protein mirrored the observed pattern.
(D) Chemical “rescue” of dTAG driven degradation. HAP1 cell lines expressing dTAGHA SLC2A3, 39A7, […], and MTCH2 were treated with 0.5 µM dTAG7 for 12 hours. A cell line expressing dTAG-HA SLC38A2 was treated with 0.5 µM dTAG7 for 18 hours. These cells were treated with MLN4924 (MLN, 1 µM), pomalidomide (poma., 10 µM), or bafilomycin A1 (bafi., 2.5 µM) to monitor the inhibition of degradation.
(§1) For immunoblotting, whole cell extracts were prepared using RIPA lysis buffer (25 mM Tris/HCl pH 7.6, 150 mM NaCl, 1% NP-40, 1% sodium deoxycholate, 0.1% SDS, EDTA-free protease inhibitor (Roche) and phosphatase inhibitors 2+3 (Sigma- Aldrich)). Cell extracts were incubated for 15 min on ice in 50 µL RIPA buffer. Lysates were cleared by centrifugation (20,000 g, 10 min, 4° C.). Protein extracts were quantified and normalized using the BCA assay (Thermo Scientific). Where indicated, cleared lysates where treated with the enzyme PNGase (NEB) to deglycosylate the proteins. Lämmli Sample Buffer 4x was added to protein extract samples without boiling. Cell lysates were run on SDS-polyacrylamide gel in tris-glycine running buffer and transferred to nitrocellulose membranes Amersham Protran 0.45 µm (GE Healthcare), according to standard methods. The membranes were incubated with the antibodies indicated below and visualized with horseradish peroxidase-conjugated secondary antibodies (described below) using the ECL Western blotting system (Thermo Scientific). The following antibodies were used: GAPDH (Santa Cruz, sc-365062), Actin (Cyoskeleton Inc., #AAN01), HA (Covance, cat #MMS-101R), HA (Cell Signaling, #3724), HA7-HRP (Sigma, H6533), HA (Roche, #11867423001), SLC9A1 (Santa Cruz, sc-136239), SLC2A1 (Cell Signaling, #12939), SLC38A1 (Cell Signaling, #36057). Secondary antibody for imaging goat anti-Rat IgG Alexa Fluor 488 (ThermoFisher, A11006). The following secondary antibodies were used for immunoblotting: goat anti-mouse HRP (115-035-003, Jackson ImmunoResearch) and goat anti-rabbit HRP (111-035-003, Jackson ImmunoResearch).
SLCs were ectopically expressed as fusions to a mutated FKBP domain, also known as the dTAG system. In brief, a dTAGed protein is amenable to degradation by specific chimeric degrader molecules (e.g. dTAG7/dTAG13) that simultaneously bind to the dTAG and the CRL4CRBN E3 ligase, inducing molecular proximity and ensuing degradation by the proteasome. Given that SLCs were expressed in all cellular compartments, the amenability of differentially located SLCs to targeted proteolysis was tested (FIG. 1A, upper graph). Each of the tested SLCs was stably expressed in HAP1 cells, and subcellular localization was assessed by immunofluorescence microscopy (FIG. 1B). In detail, SLCs located at the cell surface (SLC1A5, SLC38A1, SLC2A1, SLC2A3, SLC16A1, SLC4A4, SLC7A3), cell surface and vesicles (SLC38A2), lysosome (SLC38A9), Golgi (SLC35B2, SLC33A1), mitochondria (SLC25A26, SLC25A1, and MTCH2) and endoplasmic reticulum (SLC39A7, SLC30A9) were assayed. Cellular treatment with a specific degrader molecule (dTAG7 or dTAG13) led to identification of SLCs expressed at cell surface, endoplasmic reticulum and lysosome that were amenable to targeted degradation (FIGS. 1C, 5A). The dTAG could be placed on either N- or C-terminus of the SLC, if both face the cytoplasm (FIG. 5B), as exemplified by SLC2A3. […]

SLC9A1 = target: T1, SLC9A1 (Homo sapiens, UniProt P19634); assay: Degradation of endogenous SLC9A1 (immunoblot); assay type: cell-based; settings: WT KBM7; 0.5 µM d9A1-2 16 hours; bortezomib 0.25 µM, MG-132 1 µM, MLN4924 1 µM, pomalidomide 1 µM, bafilomycin A1 10 µM
T1 construct: endogenous in cells; host or cells: HAP1, KBM7 (WT and CRBN knockout)
T1 sequence (P19634 whole entry): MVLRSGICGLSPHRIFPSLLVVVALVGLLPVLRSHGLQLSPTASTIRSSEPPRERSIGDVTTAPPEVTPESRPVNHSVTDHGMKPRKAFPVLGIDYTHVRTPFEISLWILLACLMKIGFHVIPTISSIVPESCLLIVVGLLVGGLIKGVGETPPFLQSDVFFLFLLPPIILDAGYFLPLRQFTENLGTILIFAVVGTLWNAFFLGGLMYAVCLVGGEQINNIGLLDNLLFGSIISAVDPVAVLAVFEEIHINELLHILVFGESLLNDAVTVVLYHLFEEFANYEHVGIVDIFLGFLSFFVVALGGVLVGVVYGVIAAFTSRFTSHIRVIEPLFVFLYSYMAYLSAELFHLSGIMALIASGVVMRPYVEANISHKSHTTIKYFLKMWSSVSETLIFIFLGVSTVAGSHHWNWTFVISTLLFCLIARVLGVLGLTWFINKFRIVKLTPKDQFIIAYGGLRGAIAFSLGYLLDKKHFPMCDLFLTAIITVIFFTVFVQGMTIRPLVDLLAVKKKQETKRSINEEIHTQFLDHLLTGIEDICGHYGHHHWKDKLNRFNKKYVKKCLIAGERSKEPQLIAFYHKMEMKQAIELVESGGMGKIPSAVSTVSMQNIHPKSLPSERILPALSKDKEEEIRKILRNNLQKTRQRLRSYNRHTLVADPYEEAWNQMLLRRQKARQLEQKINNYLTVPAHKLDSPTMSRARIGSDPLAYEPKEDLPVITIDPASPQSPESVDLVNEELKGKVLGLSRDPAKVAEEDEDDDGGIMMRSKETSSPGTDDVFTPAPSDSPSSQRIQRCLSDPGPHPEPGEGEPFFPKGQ
Experimental: (B) HAP1 and KBM7 cells were treated with different concentrations of d9A1-2.
(C)Both WT and CRBN knockout KBM7 cell lines were treated with 1 µM d9A1-2 for 16 hours.
(D) Chemical “rescue” of d9A1-2 driven degradation. WT KBM7 cell lines were treated with 0.5 µM d9A1-2 for 16 hours. These cells were also treated with bortezomib (bort. 0.25 µM), MG-132 (MG, 1 µM), MLN4924 (MLN,1 µM), pomalidomide (poma., 1 µM), or bafilomycin A1 (bafi., 10 µM). All molecules, apart from bafilomycin, could rescue SLC9A1 from degradation.
(B) HAP1 cells were treated with a dose curve of the warhead, d9A1-1, d9A1-2, d9A1-3, d9A1-4, for 24 hours.
(C) KBM7 cells were treated with varying concentrations of d9A1-2.
HEK293T, LS180 were obtained from ATCC (Manassas, VA, USA), HAP1 WT, HAP1 -/-SLC38A2 (HZGHC001975c003), HAP1 -/-SLC38A9 (HZGHC000777c011) were obtained from Horizon Genomics. Other cell lines utilized here: CAKI (a gift of Georg Winter’s lab), SW620, SW480 (both a gift from Walter Berger’s lab, Medical University Vienna), LOVO, HCT15 (both a gift from Chris Gasche), KBM7 (a gift from Thijn Brummelkamp’s lab), KBM7 -/- CRBN was described in Mayor-Ruiz et al. Cells were cultured, according to the ATCC recommendation in DMEM, RPMI or IMDM medium (Gibco) supplemented with 10% (v/v) FBS and antibiotics (100 U/ml penicillin and […] streptomycin). Knock-in single cell clones of dTAG-HA SLC38A2 HAP1 cell line were generated as previously described. For starvation, culture media was replaced with media without amino acids or FBS.
as §1
MG132, Bortezomib, Pomalidomide were obtained from Selleckchem. MLN4924 was obtained from MedchemExpress. Bafilomycin was obtained from Enzo Life Sciences. dTAG13 was a generous gift from the Nathanael Gray laboratory, Dana Farber Cancer Institute. The d9A1 degrader series (warhead, d9A1-1 to d9A1-4) was synthesized by Wuxi AppTec. All chemicals were dissolved in DMSO (Sigma-Aldrich) and utilized at the concertation described in respective figures.

SMILES | effect of co-treatment on dTAG7 mediated SLC degradation (chemical rescue) (dTAG-HA SLCs) | effect of co-treatment on d9A1-2 driven SLC9A1 degradation (chemical rescue) (SLC9A1)
Nc1cccc2c1C(=O)N(C1CCC(=O)NC1=O)C2=O (stereo not drawn) [pomalidomide] | prevented measurable SLC degradation | blocked d9A1-2-induced degradation of SLC9A1
NS(=O)(=O)OC[C@@H]1C[C@@H](n2ccc3c(N[C@H]4CCc5ccccc54)ncnc32)C[C@@H]1O [MLN4924] | blocked | abrogated
CC(C)C[C@H](NC(=O)[C@H](Cc1ccccc1)NC(=O)c1cnccn1)B(O)O [bortezomib] | rescued SLCs degradation | rescued SLCs degradation
CC(C)C[C@@H](C=O)NC(=O)[C@H](CC(C)C)NC(=O)[C@H](CC(C)C)NC(=O)OCc1ccccc1 [MG132] (Cbz-Leu-Leu-Leu-aldehyde) | rescued SLCs degradation | rescued SLCs degradation
CO/C1=C\C(C)=C\[C@@H](C)[C@@H](O)[C@@H](C)C/C(C)=C/C=C/[C@H](OC)[C@@H]([C@@H](C)[C@@H](O)[C@H](C)[C@@]2(O)C[C@@H](O)[C@H](C)[C@@H](C(C)C)O2)OC1=O [bafilomycin A1] | degradation appeared unaffected | –
